The supplement of paper PMC10307832

What was measured:
Test in all cases: relative viability (nuclei count vs DMSO), 5 days (fraction); higher = more cells survive
[1] = compound: Cc1ccc2nc(NCCN)c3ncc(C)n3c2c1 + Cc1nc(NC(=O)N2CCC[C@H]2C(N)=O)sc1-c1ccnc(C(C)(C)C(F)(F)F)c1 [Alpelisib] (partner 2 µM)
How it was run: (§1)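 Lung cancer cell lines were seeded in 1536-well plates and dosed by pin tool the next day, with either a single drug or a fixed anchor-drug dose combined with five library-drug doses (not always all listed) spaced in √10 steps. Five days later, one step fixed the cells and stained their nuclei (final 0.05% Triton X-100, 1% formaldehyde, 1 ug/ml Hoechst), and nuclei were counted on 4× images. Relative viability is the nuclei count in treated wells divided by the count in vehicle wells, and each value is the median of duplicate plates.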

[2] = compound: O=C(/C=C/c1ccccc1)NC(NC(=S)Nc1cccc2cccnc12)C(Cl)(Cl)Cl [Salubrinal] + N=C(N)NC(=N)NCCc1ccccc1 [Phenformin] (partner 250 µM)
How it was run: as §1

[3] = compound: Cc1ccc2nc(NCCN)c3ncc(C)n3c2c1 + Cc1nc(Nc2ncc(C(=O)Nc3c(C)cccc3Cl)s2)cc(N2CCN(CCO)CC2)n1 [Dasatinib] (partner 0.075 µM)
How it was run: as §1

[4] = compound: O=C(/C=C/c1ccccc1)NC(NC(=S)Nc1cccc2cccnc12)C(Cl)(Cl)Cl [Salubrinal] + COc1cc2c(Oc3ccc(NC(=O)C4(C(=O)Nc5ccc(F)cc5)CC4)cc3F)ccnc2cc1OCCCN1CCOCC1 [Foretinib] (partner 0.25 µM)
How it was run: as §1

Cell Line	relative viability ([1]; first compound 0.04 µM)	relative viability ([1]; first compound 0.1265 µM)	relative viability ([1]; first compound 0.4 µM)	relative viability ([1]; first compound 1.265 µM)	relative viability ([1]; first compound 4 µM)	relative viability ([2]; first compound 0.08 µM)	relative viability ([2]; first compound 0.253 µM)	relative viability ([2]; first compound 0.8 µM)	relative viability ([2]; first compound 2.53 µM)	relative viability ([2]; first compound 8 µM)	relative viability ([3]; first compound 0.04 µM)	relative viability ([3]; first compound 0.1265 µM)	relative viability ([3]; first compound 0.4 µM)	relative viability ([3]; first compound 1.265 µM)	relative viability ([3]; first compound 4 µM)	relative viability ([4]; first compound 0.08 µM)	relative viability ([4]; first compound 0.253 µM)	relative viability ([4]; first compound 0.8 µM)	relative viability ([4]; first compound 2.53 µM)	relative viability ([4]; first compound 8 µM)
NCI-H1651	0.996	0.885	0.905	0.936	0.834	0.311	0.237	0.345	0.296	0.267	0.472	0.441	0.422	0.395	0.392	1.01	0.759	1.02	0.748	0.772
NCI-H1666	0.836	0.906	1.13	0.945	0.613	0.535	0.603	0.561	0.547	0.514	0.788	0.781	0.849	0.604	0.77	0.987	0.924	0.98	0.999	1.01
NCI-H1734	0.699	0.634	0.668	0.605	0.685	0.416	0.375	0.412	0.429	0.366	0.515	0.456	0.474	0.447	0.409	0.944	0.774	0.981	0.841	0.779
NCI-H1755	0.978	0.928	0.898	0.962	0.908	0.639	0.676	0.652	0.625	0.552	0.475	0.423	0.445	0.359	0.393	0.95	0.928	0.897	0.911	0.937
NCI-H1793	0.707	0.677	0.637	0.654	0.693	0.446	0.349	0.391	0.394	0.33	0.386	0.417	0.389	0.332	0.384	0.879	0.645	0.754	0.595	0.508
NCI-H1915	0.999	–	1.1	1.02	1.07	0.39	0.341	0.389	0.355	0.365	0.334	0.328	–	0.291	0.25	1.11	0.932	1.28	1.14	1.08
NCI-H1944	0.821	0.832	0.869	0.823	0.909	0.198	0.191	0.214	0.185	0.178	0.242	0.216	0.212	0.269	0.248	0.871	0.987	0.885	0.913	0.904
NCI-H1975	0.618	0.551	0.677	0.643	0.5	0.465	0.359	0.434	0.427	0.375	0.409	0.387	0.347	0.359	0.304	1.05	0.86	1	0.944	0.923
NCI-H1993	0.69	0.666	0.649	0.625	0.693	0.464	0.545	0.506	0.503	0.509	0.463	0.651	0.533	0.497	0.539	0.818	0.767	0.792	0.736	0.713
NCI-H2009	1.23	1.17	1.16	1.19	1.05	0.534	0.492	0.489	0.454	0.411	0.391	0.284	0.313	0.283	0.263	1.28	1.2	1.27	1.22	1.24
NCI-H2023	0.637	0.573	0.616	0.563	0.549	0.471	0.37	0.461	0.368	0.276	0.711	0.565	0.608	0.548	0.388	1.03	0.882	0.777	0.844	0.818
NCI-H2085	1.01	0.943	0.961	1.06	1.11	0.68	0.634	0.682	0.749	0.665	0.207	0.263	0.222	0.196	0.243	1.2	0.793	0.894	0.924	1.01
NCI-H2087	1.07	1.15	0.998	0.963	0.998	0.472	0.361	0.527	0.471	0.476	0.893	0.85	0.767	0.87	0.791	1.12	0.881	1.13	1.36	1.02
NCI-H2126	0.738	0.73	0.77	0.719	0.782	0.512	0.537	0.562	0.563	0.519	0.663	0.696	0.592	0.549	0.493	1.51	1.13	1.1	1.25	1.11
NCI-H2170	0.844	0.805	0.801	0.805	0.67	0.468	0.423	0.241	0.403	0.373	0.565	0.646	0.58	0.58	0.564	1.14	0.808	1.07	1.04	0.888
NCI-H2228	0.626	0.639	0.974	0.832	0.613	0.319	0.265	0.441	0.315	0.247	0.496	0.456	0.455	0.505	0.377	0.976	0.875	0.953	0.844	0.868
